{
  "source": "patent US8410128B2",
  "about": "“Triazolopyridine compounds useful as kinase inhibitors” (Bristol-Myers Squibb Company, priority 2008, dated 2013)",
  "target": "T1, p38 (Homo sapiens, UniProt Q16539)",
  "T1 construct": "GST (N); made in house; host or cells: E. coli",
  "T1 sequence (Q16539 whole entry, the tested form may be a part)": "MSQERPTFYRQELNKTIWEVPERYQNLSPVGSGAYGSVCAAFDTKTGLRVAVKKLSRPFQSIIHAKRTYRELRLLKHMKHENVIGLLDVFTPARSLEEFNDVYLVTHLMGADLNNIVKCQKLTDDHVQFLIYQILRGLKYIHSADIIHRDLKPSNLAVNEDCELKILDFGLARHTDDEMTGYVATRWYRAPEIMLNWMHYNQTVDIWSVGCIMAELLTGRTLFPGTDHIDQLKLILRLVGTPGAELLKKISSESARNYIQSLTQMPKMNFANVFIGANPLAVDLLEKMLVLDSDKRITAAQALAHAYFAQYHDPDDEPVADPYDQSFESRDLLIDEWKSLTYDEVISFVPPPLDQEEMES",
  "assay": "p38 Assay (33P-ATP/MBP filter kinase assay)",
  "assay_type": "biochemical",
  "conditions": "bacterially expressed, activated p38 10 nM; ATP 1 μM; MBP substrate; 25° C., 45 min",
  "method": "Generation of p38 Kinases\nFor this assay, cDNAs of human p38α, β, and γ isozymes were cloned by PCR. These cDNAs were subcloned in the pGEX expression vector (Pharmacia). GST-p38 fusion protein was expressed in E. Coli and purified from bacterial pellets by affinity chromatography using glutathione agarose. p38 fusion protein was activated by incubating with constitutively active MKK6. Active p38 was separated from MKK6 by affinity chromatography. Constitutively active MKK6 was generated according to Raingeaud et al. (Mol. Cell. Biol., 1247-1255 (1996)).\nThe assays were performed in V-bottomed 96-well plates. The final assay volume was 60 μl prepared from three 20 μl additions of enzyme, substrates (MBP and ATP) and test compounds in assay buffer (50 mM Tris pH 7.5, 10 mM MgCl2, 50 mM NaCl and 1 mM DTT). Bacterially expressed, activated p38 was pre-incubated with test compounds for 10 min. prior to initiation of reaction with substrates. The reaction was incubated at 25° C. for 45 min. and terminated by adding 5 μl of 0.5 M EDTA to each sample. […] The filtermat was then dried in a microwave oven for 1 min., treated with MELTILEX® A scintillation wax (Wallac), and counted on a MICROBETA® scintillation counter Model 1450 (Wallac). Inhibition data were analyzed by nonlinear least-squares regression using PRIZM® (GraphPadSoftware). […]",
  "data": [
    {"smiles": "CC(C)Nc1ncc(-c2ccc3nncn3c2)s1", "note": "[Example 12]", "values": [
      {"measurement": "IC50", "result": 581, "unit": "nM"}
    ]}
  ]
}
